The values that follow come from patent US6432883B1, “Methods of treating plants with glycolic acid” (Emerald BioAgriculture Corporation, priority 2000, dated 2002).

In assay [1] the test system is Sclerotinia minor. Description: Colony radius of plant pathogen on amended potato dextrose agar. The conditions noted are these: in PDA, 4 days, about 23° C., FIG. 5. The class given is cell-based. An excerpt: Sclerotinia minor culture SaM-18 was received from Krishna Subbarro, Ph.D., Univ. Calif., Davis. Potato dextrose agar (PDA) powder was purchased from Baltimore Biological Laboratory, Inc. (BBL), ammonium glycolate and glycolic acid from DuPont Specialty Chemicals and BreakThru® surfactant from Goldschmidt Chemical Corp.
PDA was made, poured into sterile disposable petri dishes (100×15 mm) and inoculated with S. minor sclerotia to start new cultures on day zero. These cultures had reached an appropriate stage of maturation for use for use in the test after two weeks of growth. Multiple 1 liter containers of PDA were made and autoclaved on day 14. These PDA containers remained in the circulating water bath at 46° C. until the solutions were ready for addition (about 2 hrs.). The glycolic acid-containing compositions were added to the 46° C. PDA through a syringe-tip 0.2 μm-pore sterile filtration disc in a positive laminar-flow sterile hood and thoroughly mixed before returning to the 46° C. water bath to await pouring. Stacks of 22 dishes were poured for each medium type and allowed to solidify and cool overnight.
On day 15, soft, white to gray, sclerotial clumps of hyphae were picked from the culture dishes with heat sterilized forceps and one clump was transferred to the center of each test medium dish. Twenty dishes of each inoculated medium were stacked and replaced into the plastic sleeves they were originally packaged in for incubation at room temperature (about 23° C.). After 4 days of growth, some of the cultures had just reached the edges of the medium. The radius of each colony was measure in mm.
Treatments were water controls, 0.05% surfactant controls, 5, 15, 50, 75 and 100 ppm of glycolic acid (F12) and 5, 15, 50, 100 and 750 ppm of ammonia-neutralized glycolic acid (F18; i.e., ammonium glycolate).

For assay [2], the system named is cabbage. Description: Cabbage plant growth stimulation: fresh and dry weights. The class given is in vivo. The conditions noted are these: 5, 15 or 50 ppm spray, FIGS. 1 and 2. The method, then: Market Prize, F1 cabbage seed, lot 88955, was purchased from Harris Seeds, Inc. (Rochester, N.Y.) and grown 2 plants per 4″×4″×4″ pot, 1 pot per experimental unit and 6 experimental units per each of 4 replications. The plants were spray-treated first at 2 true leaves and again 7 days later with 8 ml solution per pot.
The treatments included a non-treated control (NTC), 0.05% Breakthru® (a silicone-based surfactant obtained from Goldschmidt Chemical, Hopewell, Va.) control, and 5, 15 or 50 ppm of either Glypure® (F12; 99% high purity crystalline glycolic acid), or ammonia-neutralized Glypure® [F18; a 50% (w/v) solution made by neutralizing 70% high purity glycolic acid from DuPont with ammonium hydroxide to a pH of 4.4. Growth stimulation was assessed by measuring both the fresh and dry weights of the plants.

Assay [3] has as its system cabbage. Description: Cabbage drought stress: fresh and dry weights. The class given is in vivo. The method, then:
Market Prize, F1 cabbage seed, lot 88955, as described in example 7, was treated identically as in example 7, except that drought stress was imposed by withholding water 7 days following the second spray and continuing to withhold water for 13 sequential days thereafter. Drought tolerance was assessed by measuring both the fresh and dried weights of the plants.

Regarding `N.O=C(O)CO` [F18, ammonium glycolate], in assay [1], the “Sclerotinia growth compared to equivalent amounts of glycolic acid” value was “significantly more” and the “growth of Sclerotinia minor (colony radius) compared to controls” value is reported as “statistically significantly increased the growth”. Moreover, in assay [2], the “plant growth (fresh and dry weights) compared to the controls” value is “statistically significantly stimulated plant growth”; the “plant growth compared to equivalent amounts of F12” value is “stimulated plant growth to a greater extent”. Besides, the “resistance to the effects of drought stress compared to equivalent amounts of F12” value in assay [3] (5, 15 and 50 ppm, plant weight) is “statistically significantly greater effect”. Also, the “fresh weight of the cabbage compared to controls” value in assay [3] (drought, water withheld 13 days, 5, 15, 50 ppm, FIG. 3) was “statistically significantly increased”. Moreover, the “dry weight of the cabbage compared to controls” value in assay [3] (drought, water withheld 13 days, 5, 15, 50 ppm, FIG. 4) is reported as “statistically significantly increased”.
